These results are taken from US4885239A, “Rapid differentiation of bacteria using polyether antibiotics” (Eastman Kodak Company, priority 1986, dated 1989).

Assay [1] concerns E. coli (gram -). The assay is described as follows: change in optical density with tetrazolium salt MTT (Example 5), E. coli. The format is cell-based, Escherichia coli (ATCC 25922). Conditions: 540 nm, 37° C., without antibiotic 0.643. The method, then: (§1) gram-negative bacteria Enterobacter cloacae (ATCC 23355), Escherichia coli (ATCC 25922), Proteus vulgaris (ATCC 13315), Klebsiella pneumoniae (ATCC 13883) and Pseudomonas aeruginosa (ATCC 27853), and gram-positive bacteria Staphylococcus aureus (ATCC 25923) and Streptococcus pyogenes (ATCC 19615), and brain heart infusion (BHI) broth from Difco Laboratories (Detroit, Mich.),
(§2) Bacterial suspensions were prepared by growing the cells in BHI to stationary phase overnight at 37° C. P. aeruginosa was grown with agitation. About 40 ml of overnight cultures were centrifuged, decanted and washed once with 0.05 molar potassium phosphate buffer or 0.05 molar N-2-hydroxyethylpiperazine-N'-2-ethanesulfonic acid (HEPES) buffer, pH 7.8, and resuspended in buffer.
(§3) The reducible compound solution was prepared with 3-(4,5-dimethyl-2-thiazolyl)-2,5-diphenyl-2H-tetrazolium bromide (MTT) (200 μl of 5 mg/ml methanol), 200 μl glucose solution (10% in water), 200 μl trimethyl-1,4-benzoquinone ETA (1.5 mg/ml methanol) and 12 ml of HEPES buffer (0.05 molar, pH 7.8).
(§4) Test solutions were prepared with the following: 50 μl HEPES buffer, 50 μl polyether antibiotic A23187 (free acid, 0.01 molar in methanol), 10 μl calcium chloride (1 molar) (serial dilutions of buffer and antibiotic were performed to obtain various antibiotic concentrations), 50 μl of the appropriate cell suspension, E. coli (about 10^8 cells/ml) or S. aureus (about 10^8 cells/ml), and 200 μl of the MTT solution. Control solutions were prepared as described in previous Examples.
(§5) Optical density measurements were obtained at 540 nm using a standard spectrophotometer and the change in optical density (ΔOD) was determined after 30 minutes at 37° C. The resulting data are shown in Table VII below for several concentrations of antibiotic. It is clear from the data that the composition of this example was useful for differentiating bacteria.

Assay [2] relates to S. aureus (gram +). The assay is described as follows: change in optical density with tetrazolium salt MTT (Example 5), S. aureus. Format: cell-based, Staphylococcus aureus (ATCC 25923). The following applies: 540 nm, 37° C., without antibiotic 0.505. The method, then:
as §1, §2, §3, §4, §5

In a further assay the test system is P. aeruginosa. Put plainly: dye formation from RIND VII in presence of calimycin, P. aeruginosa. Further details: key: 0: no dye formation; +/-: faint dye formation; 1+: light dye formation; 2+: moderate dye formation; 3+: strong dye formation; 4+: very strong dye formation. Format: cell-based, Pseudomonas aeruginosa (ATCC 27853). The following applies: calimycin 10^-3 molar, calcium chloride, 10% yeast extract instead of glucose. The method, then:
as §1
(§6) Bacterial suspensions were prepared by growing the cells in BHI to stationary phase overnight at 37° C. P. aeruginosa was grown with agitation. […]
(§7) TERGITOL 7 anionic surfactant was used to differentiate viable bacteria according to the prior art method. […] The amount of dye formed was then determined visually and graded as follows: 0 indicates no dye formation, +/- indicates faint dye formation, 1+ indicates light dye formation, 2+ indicates moderate dye formation, 3+ indicates strong dye formation, and 4+ indicates very strong dye formation.
(§8) Calimycin, a polyether antibiotic, was similarly used with RIND VII in the differentiation of bacteria. Assays were performed as described above, except that 25 μl of 1 molar calcium chloride solution was added to each test solution and the P. aeruginosa response was measured in the presence of 10% yeast extract as the carbon source instead of glucose. […]

In a further assay the test system is P. vulgaris. Put plainly: dye formation from RIND VII in presence of calimycin, P. vulgaris. Format: cell-based, Proteus vulgaris (ATCC 13315). Further details: key: 0: no dye formation; +/-: faint dye formation; 1+: light dye formation; 2+: moderate dye formation; 3+: strong dye formation; 4+: very strong dye formation. Conditions: calimycin 10^-3 molar, calcium chloride. The method, then:
as §1, §6, §7, §8

A further assay has as its system S. aureus. Put plainly: dye formation from RIND VII in presence of calimycin, S. aureus. Format: cell-based, Staphylococcus aureus (ATCC 25923). The following applies: calimycin 10^-3 molar, calcium chloride. More on the design: key: 0: no dye formation; +/-: faint dye formation; 1+: light dye formation; 2+: moderate dye formation; 3+: strong dye formation; 4+: very strong dye formation. On the procedure: as §1, §6, §7, §8

The test system of assay [3] is S. aureus (gram +). The assay is described as follows: inhibition of the reduction of RIND XXXV in dry analytical element (Example 6), S. aureus. Format: cell-based, Staphylococcus aureus (ATCC 25923). Conditions: calcium chloride, 30 minutes, 37° C.
The test system of assay [4] is E. coli (gram -). The assay is described as follows: change in relative fluorescence with water-compatible RIND XXXV (Example 4), E. coli. The following applies: 37° C., without antibiotic 2539. The format is cell-based, Escherichia coli (ATCC 25922). On the procedure:
as §1, §2
A dispersion containing a RIND compound was prepared by dissolving RIND VII from Table II above in N,N-dimethylformamide (DMF) at 16 mg compound per ml of solvent. An aliquot (250 μl) of the resulting solution was added to 500 μl of TRITON X-100 surfactant. This mixture was then added dropwise with stirring to 25 ml of 0.05 molar HEPES buffer. A solution containing a water-compatible RIND compound XXXV was prepared by dissolving the compound (16 mg/ml) in N,N-dimethylformamide which had been acidified with a 0.1% sulfuric acid solution.
A solution was prepared from the following components: 100 μl RIND XXXV solution (16 mg/ml acidified N,N-dimethylformamide), 200 μl glucose solution (10% in water), 200 μl trimethyl-1,4-benzoquinone ETA solution (1.5 mg/ml methanol) and 10 ml HEPES buffer.
Test solutions were prepared from the following reagents: 50 μl HEPES buffer, 50 μl polyether antibiotic A23187 (free acid, 0.01 molar in methanol), 10 μl calcium chloride solution (1 molar) (serial dilutions of buffer and antibiotic were performed to obtain various antibiotic concentrations), 50 μl of the appropriate cell suspensions (E. coli, about 10^8 cells/ml and S. aureus, about 10^8 cells/ml) and 200 μl of the RIND solution. Control solutions were prepared as described in Examples 2 and 3.
Relative fluorescence was measured using a standard spectrophotometer modified to read at excitation of 540 nm and emission of 620 nm. The change (Δ) in relative fluorescence was determined after 30 minutes at 37° C. for several concentration levels of antibiotic.

With `CNc1ccc2oc(C[C@H]3O[C@@]4(CC[C@H]3C)O[C@H]([C@H](C)C(=O)c3ccc[nH]3)[C@H](C)C[C@H]4C)nc2c1C(=O)O` [calimycin, Calimycin], the “Δ OD after 30 Min.” value is given as 0.503 in the assay on E. coli (gram -) [1] (antibiotic 1 × 10^-4 molar); 0.529 in the assay with E. coli (gram -) [1] (antibiotic 2 × 10^-4 molar); 0.512 with E. coli (gram -) [1] (antibiotic 4 × 10^-4 molar); 0.413 in the assay on E. coli (gram -) [1] (antibiotic 8 × 10^-4 molar); 0.089 with S. aureus (gram +) [2] (antibiotic 1 × 10^-4 molar); 0.096 with S. aureus (gram +) [2] (antibiotic 2 × 10^-4 molar). For the same molecule, the “Δ OD after 30 Min.” value in the assay on S. aureus (gram +) [2] (antibiotic 4 × 10^-4 molar) was determined as 0.065; in the assay with S. aureus (gram +) [2] (antibiotic 8 × 10^-4 molar), 0.028. The dye formation is 2+ in the assay with P. aeruginosa (15 Minutes); 4+ in the assay on P. aeruginosa (30 Minutes); 4+ in the assay on P. vulgaris (15 Minutes); 4+ with P. vulgaris (30 Minutes); 0 with S. aureus (15 Minutes); 0 with S. aureus (30 Minutes). For the same molecule, in the assay with S. aureus (gram +) [3], the “Corrected Percent Inhibition” value stood at 70%. In addition, the “Δ Relative Fluorescence after 30 Min.” value amounted to 2804 with E. coli (gram -) [4] (antibiotic 1 × 10^-4 molar), 2540 with E. coli (gram -) [4] (antibiotic 2 × 10^-4 molar), 2338 in the assay with E. coli (gram -) [4] (antibiotic 4 × 10^-4 molar) and 2411 in the assay on E. coli (gram -) [4] (antibiotic 8 × 10^-4 molar).
